Test results: patent US20110212108A1, “NEUREGULIN/ERBB SIGNALING AND INTEGRIN” (THE REGENTS OF THE UNIVERSITY OF CALIFORNIA, priority 2008, published 2011)
“Also recorded” adds a separate entry of the source.

What was measured:
[1] = system: B-16 F10 Cells; assay: B16F10 cell proliferation, MTS assay; assay type: cell-based, mouse; conditions: 24 hours
Protocol: FIG. 10. […] B-16 F10 Cells were starved for 5 days in DMEM+1% FBS medium, and then added 3KE (175-222) and WT (175-222) NRG1 at indicated concentrations for 24 hours by MTS assays. P=0.0354 (between wt and 3KE+wt) and P<0.0001 (between wt and 3KE) by 2-way ANOVA.
Cell proliferation: cells were starved by culturing DMEM with low-level FCS (e.g., 0.4%) overnight and then treated with the wt or mutant NRG1 (175-222) (up to 100 ng/ml). The cells were harvested in 15 min to 6 h after stimulation and cell lysates analyzed by western blotting with antibodies specific to signaling molecules. Alternatively, cells were cultured for 24-48 h after stimulation for testing proliferation or cell viability by MTS assays. Statistical analysis and calculation of kinetic constants were performed using Prism software (Graphpad).

[2] = system: estrogen-dependent and independent breast cancer cell lines; assay: Growth of breast cancer cell lines; assay type: cell-based; conditions: several estrogen-dependent and independent lines
[3] = molecular target: T1, CHO cells that express human α6β4 (Homo sapiens, UniProt P16144+P23229); assay: Cell adhesion assay, α6β4-CHO cells; assay type: cell-based; conditions: DMEM, 1 h at 37° C.
T1 construct: expressed in transfected cells; host or cells: CHO
Protocol: FIG. 17. CHO cells that express human α6β4 adhered to wt NRG1 (175-222) but not to the 3KE (175-222) mutant. Wells of 96-well microtiter plate were coated with wt or 3KE mutant NRG1 (175-222) and incubated with α6β4-CHO or β1-CHO cells in DMEM for 1 h at 37° C. as described herein. Bound cells were quantified.

[4] = system: CHO cells that express recombinant human ErbB4 (ErbB4-CHO); assay: ERK1/2 activation in ErbB4-CHO cells, Western blotting; assay type: cell-based, Chinese hamster; conditions: serum-starved
Protocol: FIG. 14. […] ErbB4 was stably expressed in CHO cells (designated ErbB4-CHO cells). ErbB4 was detected in a cell lysate of ErbB4-CHO cells by western blotting (top). Serum-starved CHO or ErbB4-CHO cells were stimulated with wt NRG1 (175-222) or the 3KE (175-222) mutant and ERK1/2 activation was measured by Western blotting.
CHO cells express endogenous ErbB2 and ErbB3, but no ErbB4. CHO cells that express ErbB4 were generated by transfecting ErbB4 expression vector (designated ErbB4-CHO). […] It is therefore believed that the direct binding of integrin […] the Ras-MAP kinase pathway in ErbB4-CHO cells.
Transfection: ErbB4 stably transfected cells were generated by transfecting ErbB4 expression plasmid pCDNA3.1 (with a neo gene) to cells and selected for G418 resistance. Western blotting analysis were performed as described above, and mutagenesis was carried out by the Quick-Change method.

[5] = molecular target: T2, CHO cells that express human β1 (β1-CHO) (Homo sapiens, UniProt P05556); assay: Cell adhesion assay, β1-CHO cells; assay type: cell-based
T2 construct: expressed in transfected cells; host or cells: CHO
Protocol: FIG. 3. Adhesion of CHO cells that express human β1 (β1-CHO) or β1-3-1 (β1-3-1-CHO) to wt NRG1 (175-222). The β1-3-1 mutation changes the specificity of β1 integrins to that of β3 integrins. Cell adhesion was performed as described herein. β1-3-1-CHO cells adhered to wt NRG1 (175-222) and this binding was blocked by anti-human β1 antibody AIIB2, but not by purified mouse IgG (mIgG). BSA: BSA as a control was coated instead of NRG1 (175-222).
CHO or K562 cells expressing different recombinant integrins were previously known and available (Zhang et al. 1998; Tarui et al. 2006). Labeling of proteins with FITC or […] was performed according to manufacturers' instructions. Flow cytometry was performed as described above. Also, adhesion assays as described above were used to confirm the findings using flow cytometry.
Cell adhesion and soluble integrin binding assays were performed as described previously (Mori, et al., 2008). NRG1α (175-241) was immobilized to wells of 96-well microtiter plate overnight at 4° C. in 0.1 M carbonate buffer, pH 2 9.4. Remaining protein binding sites were blocked by incubating with 200 μl of 0.1% BSA in PBS for 60 min at room temperature. […] After rinsing the wells with the same buffer, bound integrins were determined by horseradish peroxidase (HRP)-conjugated anti-His tag mouse IgG and substrate 3,3′,5,5′-tetramethylbenzidine of HRP.

[6] = molecular target: T3, Recombinant human ErbB3 Fc chimera (Homo sapiens, UniProt P21860); assay: Competitive binding assay on immobilized ErbB3; conditions: biotin labeled WT 20 nM
T3 construct: Recombinant soluble ErbB3 Fc fusion protein was coated onto well of 96-well microtiter plate; purchased R&D Systems
Protocol: FIG. 20. The 3KE mutant of NRG1α (175-241) binds to ErbB3. a). Binding of the 3KE mutant of NRG1α (175-241) to recombinant ErbB3. Recombinant soluble ErbB3 Fc fusion protein (R&D system) was coated onto wells of 96-well microtiter plate (1 μg/ml). NRG1α (175-241) WT or 3KE (175-241) mutant was added to the wells and incubated for 1 h at room temperature. GST was used as a control. After washing the wells, bound GST NRG1α (175-241) was determined by using anti-GST antibody HRP conjugate. […] Competitive binding assay. Recombinant soluble ErbB3 Fc fusion protein was coated onto well of 96-well microtiter plate (1 μg/ml). Binding of biotin labeled NRG1α (175-241) WT (20 nM) in the presence of increasing concentrations of NRG1α (175-241) WT, 3KE (175-241) or GST. After washing the wells, bound biotin labeled NRG1α (175-241) WT was determined by using streptavidin HRP conjugate.
GST-fusion WT NRG1α (175-241) was biotinylated by using EZ-Link Sulfo-NHS-LC-Biotin (Pierce) as described in the manufacturer's instructions. Briefly, GST-fusion WT NRG1α (175-241) was incubated with sulfo-NHS-LCBiotin for 1 hour on ice, and remaining free sulfo-NHS-LC-Biotin was quenched with Tris-HCl buffer pH 8.0. Recombinant human ErbB3 Fc chimera (R&D Systems) was immobilized to wells of 96-well microtiter plate at 1 μg/ml coating concentration in 0.1 M NaHCO3, pH9.4 overnight at 4° C., and the remaining protein binding sites were blocked by incubating with 0.1% BSA. Wells were then incubated with biotinylated GST fusion NRG1α (175-241) in the presence of non-labeled GST, GST-WT NRG1α (175-241) or GST-3KE (175-241) for 3 h at room temperature. Bound biotinylated GST-fusion NRG1α (175-241) WT to wells was determined with streptavidin HRP conjugate and HRP substrate at 490 nm.

T3 sequence (P21860 20-643 limits assumed, change not shown): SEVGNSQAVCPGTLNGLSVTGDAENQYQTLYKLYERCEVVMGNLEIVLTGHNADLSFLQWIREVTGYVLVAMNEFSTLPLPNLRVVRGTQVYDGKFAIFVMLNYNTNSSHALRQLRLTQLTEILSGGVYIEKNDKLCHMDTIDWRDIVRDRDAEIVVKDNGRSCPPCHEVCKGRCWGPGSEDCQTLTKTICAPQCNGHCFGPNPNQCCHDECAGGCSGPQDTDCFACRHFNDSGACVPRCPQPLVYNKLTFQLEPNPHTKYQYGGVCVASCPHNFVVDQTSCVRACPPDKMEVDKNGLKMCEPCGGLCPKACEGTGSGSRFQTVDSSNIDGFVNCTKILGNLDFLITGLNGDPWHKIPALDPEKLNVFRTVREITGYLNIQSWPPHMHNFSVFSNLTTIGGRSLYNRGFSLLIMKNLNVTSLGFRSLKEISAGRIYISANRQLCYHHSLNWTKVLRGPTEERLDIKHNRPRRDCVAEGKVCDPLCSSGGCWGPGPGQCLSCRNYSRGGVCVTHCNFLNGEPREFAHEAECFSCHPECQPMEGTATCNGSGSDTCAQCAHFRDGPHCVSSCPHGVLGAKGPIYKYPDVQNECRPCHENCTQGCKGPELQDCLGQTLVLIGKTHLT
T2 sequence (P05556 21-798): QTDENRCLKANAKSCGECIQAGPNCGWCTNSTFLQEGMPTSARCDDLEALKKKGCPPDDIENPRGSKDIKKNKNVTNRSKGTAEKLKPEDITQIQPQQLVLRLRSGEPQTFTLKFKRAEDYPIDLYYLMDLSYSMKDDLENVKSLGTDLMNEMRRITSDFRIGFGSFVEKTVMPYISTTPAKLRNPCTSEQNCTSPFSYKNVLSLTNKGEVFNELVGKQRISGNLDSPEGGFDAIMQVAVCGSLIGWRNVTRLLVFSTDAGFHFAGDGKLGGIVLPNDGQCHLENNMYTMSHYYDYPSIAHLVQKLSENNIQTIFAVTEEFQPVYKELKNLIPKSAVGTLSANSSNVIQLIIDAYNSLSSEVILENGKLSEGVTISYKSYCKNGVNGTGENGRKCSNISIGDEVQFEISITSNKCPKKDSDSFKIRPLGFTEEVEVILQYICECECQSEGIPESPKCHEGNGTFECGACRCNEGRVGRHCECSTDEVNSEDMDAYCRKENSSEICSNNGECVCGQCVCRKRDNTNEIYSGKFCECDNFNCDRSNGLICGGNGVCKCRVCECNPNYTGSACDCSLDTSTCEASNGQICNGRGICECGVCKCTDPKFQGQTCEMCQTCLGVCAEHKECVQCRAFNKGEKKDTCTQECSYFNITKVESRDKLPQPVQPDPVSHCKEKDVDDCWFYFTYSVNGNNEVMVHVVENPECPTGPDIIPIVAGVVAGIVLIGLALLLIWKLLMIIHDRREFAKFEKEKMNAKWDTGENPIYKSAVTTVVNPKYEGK
T1 sequence (P23229 24-1130): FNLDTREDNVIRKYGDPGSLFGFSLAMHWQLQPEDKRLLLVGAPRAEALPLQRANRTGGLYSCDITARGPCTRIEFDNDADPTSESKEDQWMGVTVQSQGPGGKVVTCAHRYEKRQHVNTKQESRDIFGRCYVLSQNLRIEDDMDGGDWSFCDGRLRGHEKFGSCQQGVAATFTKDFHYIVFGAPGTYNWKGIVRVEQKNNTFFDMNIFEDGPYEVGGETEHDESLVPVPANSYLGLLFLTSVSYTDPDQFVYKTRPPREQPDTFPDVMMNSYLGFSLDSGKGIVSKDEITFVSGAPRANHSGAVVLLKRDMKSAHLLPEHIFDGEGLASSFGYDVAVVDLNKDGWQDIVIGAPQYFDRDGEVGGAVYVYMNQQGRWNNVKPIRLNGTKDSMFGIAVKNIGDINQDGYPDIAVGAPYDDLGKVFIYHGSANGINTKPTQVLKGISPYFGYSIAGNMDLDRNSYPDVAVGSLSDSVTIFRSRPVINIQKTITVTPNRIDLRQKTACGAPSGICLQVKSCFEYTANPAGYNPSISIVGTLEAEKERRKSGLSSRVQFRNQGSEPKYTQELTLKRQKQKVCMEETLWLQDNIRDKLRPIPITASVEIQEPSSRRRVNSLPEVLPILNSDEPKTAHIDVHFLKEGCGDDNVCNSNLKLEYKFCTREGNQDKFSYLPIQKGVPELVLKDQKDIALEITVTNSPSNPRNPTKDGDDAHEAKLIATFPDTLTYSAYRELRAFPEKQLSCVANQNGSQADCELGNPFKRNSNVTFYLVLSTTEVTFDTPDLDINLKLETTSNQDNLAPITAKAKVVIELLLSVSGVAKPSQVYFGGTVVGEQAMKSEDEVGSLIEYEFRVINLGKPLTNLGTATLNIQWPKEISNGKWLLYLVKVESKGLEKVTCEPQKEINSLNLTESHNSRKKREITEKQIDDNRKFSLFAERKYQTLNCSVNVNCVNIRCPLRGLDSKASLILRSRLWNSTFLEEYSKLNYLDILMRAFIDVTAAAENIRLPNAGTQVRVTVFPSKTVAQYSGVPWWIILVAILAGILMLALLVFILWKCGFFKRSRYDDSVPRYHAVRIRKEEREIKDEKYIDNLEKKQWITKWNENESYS
T1 sequence (P16144 28-1822): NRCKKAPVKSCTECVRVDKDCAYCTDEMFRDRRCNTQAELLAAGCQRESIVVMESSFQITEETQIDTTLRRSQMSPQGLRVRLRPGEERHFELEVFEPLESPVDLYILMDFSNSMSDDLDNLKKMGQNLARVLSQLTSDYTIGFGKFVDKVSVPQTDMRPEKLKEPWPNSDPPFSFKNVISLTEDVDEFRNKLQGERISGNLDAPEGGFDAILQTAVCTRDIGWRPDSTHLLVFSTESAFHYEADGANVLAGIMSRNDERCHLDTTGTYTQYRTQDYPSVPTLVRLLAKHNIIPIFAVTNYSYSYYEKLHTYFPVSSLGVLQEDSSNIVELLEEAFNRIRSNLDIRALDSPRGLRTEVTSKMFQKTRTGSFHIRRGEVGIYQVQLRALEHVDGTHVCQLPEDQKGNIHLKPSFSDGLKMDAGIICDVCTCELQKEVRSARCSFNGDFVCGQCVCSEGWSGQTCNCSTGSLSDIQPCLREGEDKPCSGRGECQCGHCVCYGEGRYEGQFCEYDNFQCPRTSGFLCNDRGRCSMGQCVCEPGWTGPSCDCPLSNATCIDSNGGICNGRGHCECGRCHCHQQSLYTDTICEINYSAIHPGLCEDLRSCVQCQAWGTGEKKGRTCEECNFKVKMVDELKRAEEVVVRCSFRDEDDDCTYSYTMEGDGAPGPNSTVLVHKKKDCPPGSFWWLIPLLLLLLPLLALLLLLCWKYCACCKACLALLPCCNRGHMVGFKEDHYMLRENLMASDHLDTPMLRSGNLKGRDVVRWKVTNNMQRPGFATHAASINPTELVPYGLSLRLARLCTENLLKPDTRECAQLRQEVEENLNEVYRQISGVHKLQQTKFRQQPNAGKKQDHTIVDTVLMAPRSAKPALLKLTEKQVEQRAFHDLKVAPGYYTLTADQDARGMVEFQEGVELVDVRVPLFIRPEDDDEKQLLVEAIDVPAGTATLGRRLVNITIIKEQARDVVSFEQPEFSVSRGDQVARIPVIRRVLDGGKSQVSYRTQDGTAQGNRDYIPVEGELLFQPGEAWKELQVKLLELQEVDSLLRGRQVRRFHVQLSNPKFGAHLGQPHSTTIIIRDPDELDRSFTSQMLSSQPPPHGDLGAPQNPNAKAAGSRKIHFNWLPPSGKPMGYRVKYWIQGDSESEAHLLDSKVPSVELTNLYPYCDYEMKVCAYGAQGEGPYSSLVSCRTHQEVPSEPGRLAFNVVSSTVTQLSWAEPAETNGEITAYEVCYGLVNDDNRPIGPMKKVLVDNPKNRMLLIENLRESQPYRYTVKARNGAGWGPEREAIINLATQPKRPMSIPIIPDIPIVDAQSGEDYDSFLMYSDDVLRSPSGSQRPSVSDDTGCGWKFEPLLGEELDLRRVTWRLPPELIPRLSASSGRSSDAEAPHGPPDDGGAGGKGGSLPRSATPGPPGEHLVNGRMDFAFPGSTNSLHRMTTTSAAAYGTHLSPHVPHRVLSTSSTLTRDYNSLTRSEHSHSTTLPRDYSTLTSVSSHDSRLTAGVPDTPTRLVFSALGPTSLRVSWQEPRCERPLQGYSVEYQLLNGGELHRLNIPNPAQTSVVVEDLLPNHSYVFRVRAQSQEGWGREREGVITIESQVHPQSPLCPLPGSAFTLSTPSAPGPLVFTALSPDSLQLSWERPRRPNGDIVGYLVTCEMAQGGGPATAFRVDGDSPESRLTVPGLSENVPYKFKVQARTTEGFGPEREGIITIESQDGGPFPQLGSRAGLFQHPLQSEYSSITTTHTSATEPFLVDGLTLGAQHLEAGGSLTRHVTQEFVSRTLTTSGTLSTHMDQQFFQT

Molecule	Induction of cell proliferation in B16F10 cells [1]	Suppression of cell proliferation in B16F10 cells ([1]; P=0.0354 between wt and 3KE+wt)	Growth of breast cancer cells [2]	Adhesion of α6β4-CHO cells to the immobilized protein [3]	ERK1/2 activation in ErbB4-CHO cells [4]	Adhesion of β1-CHO cells to the immobilized protein [5]	ERK1/2 activation in ErbB4-CHO cells ([4]; listed as wt NRG (175-222))	Competition for binding of biotinylated WT NRG1α (175-241) to immobilized soluble ErbB3 [6]	Competition for binding of biotinylated WT NRG1α (175-241) to immobilized soluble ErbB3 ([6]; listed as 3KE NRG1α (175-241))	Competition for binding of biotinylated WT NRG1α (175-241) to immobilized soluble ErbB3 ([6]; listed as 3KE mutant of NRG1α (175-241))
3KE (175-222): NRG1 (175-222) with Lys181/Lys185/Lys187 mutated to Glu; GTSHLVECAEEEETFCVNGGECFMVKDLSNPSRYLCKCQPGFTGARCT (SEQ ID NO:11) (integrin-binding site within human neuregulin, 3KE mutant, short version)	did not induce them	Suppression of cell proliferation	did not	did not adhere	activated ERKI/2; also recorded: enhanced ERK1/2 activation	–	–	–	–	–
wt NRG1 (175-222): wild type human neuregulin 1 fragment, EGF-like domain, residues 175-222 of SEQ ID NO:4 (SEQ ID NO:3) (GTSHLVKCAEKEKTFCVNGGECFMVKDLSNPSRYLCKCQPGFTGARCT; integrin-binding site within human neuregulin 1 EGF-like region and portion of alpha domain, residues 175-222 of human neuregulin 1 alpha) [reference compound]	induced cell proliferation	–	enhanced the growth of breast cancer cells	adhere	suppressed ERK1/2	did not	suppressed	–	–	–
WT NRG1α (175-241): wild type human neuregulin 1 fragment, residues 175-241 of SEQ ID NO:4 (SEQ ID NO:5), entire EGF-like motif and α domain (protein, integrin-binding site within human neuregulin, residues 175-241of human neuregulin 1alpha, long version) GTSHLVKCAEKEKTFCVNGGECFMVKDLSNPSRYLCKCQPGFTGARCTENVPMKVQNQEKAEELYQK	–	–	–	–	–	did not	–	at comparable levels	–	–
3KE (175-241): NRG1α (175-241) with Lys181/Lys185/Lys187 mutated to Glu, SEQ ID NO:6 (3KE, long version) (protein, integrin-binding site within human neuregulin, residues 175-241of human neuregulin 1alpha, long version, 3KE mutant) GTSHLVECAEEEETFCVNGGECFMVKDLSNPSRYLCKCQPGFTGARCTENVPMKVQNQEKAEELYQK	–	–	–	–	–	–	–	–	at comparable levels	binds to ErbB3 at levels comparable to WT NRG1α (175-241)
